Like-named read-outs stand apart in the source and are kept apart here.
Assays:
[1] = system: MCF-7 human breast tumor; test: MCF-7 human breast cancer xenograft model; assay type: in vivo, Nude mice; conditions: 0.5% w/v in drinking water; for animals with partial tumor shrinkage: Day 90, eight animals per group; for mean partial tumor shrinkage: Day 90, in the animals with shrinkage; for tumor growth inhibition: Day 90, in the animals without shrinkage
Method: FIG. 11 Mean Tumor weight of MCF-7 human breast tumors in nude […].
Nude mice were implanted with the estrogen-dependent human breast tumor line, MCF-7 (ATCC #HTB22). […] The experiment was terminated on Day 90 (when control tumors had reached a size of 400 mg.). Mice were weighed twice weekly, and tumor measurements were taken by calipers twice weekly, starting at time of DFMO administration (Day 1). Tumor measurements were converted to mg tumor weight by the formula, L^2×W/2.

[2] = Plasma levels in rats after single oral dose
[3] = rat, in vivo, po, 200 mg/kg
[4] = system: MCF-7, LNCaP, PC-3, HT-29 cancer cell lines; test: Induction of apoptosis in cell lines (DNA fragmentation ELISA, Hoechst staining); assay type: cell-based, human; conditions: DFMO forms at 1 and 10 uM
Method: Each of the three forms of DFMO were tested at two concentrations (1 and 10 uM). Adriamycin and calcium chloride were used as positive controls. Apoptosis was assayed using a multi-well plate DNA fragmentation assay according to the Cellular DNA Fragmentation ELISA kit (Boehringer Mannheim Biochemicals, Cat. #1585-045) and Hoechst staining.

[5] = rats, 200 mg/kg/day to 1.2 g/kg/day by intubation, up to eight weeks
Method: Twenty-four Long Evans pigmented rats (250-275 g) were acquired from Harlan Sprague Dawley (Indianapolis, Ind.) and thirty-six pigmented guinea pigs obtained from Kuiper Rabbit Ranch (Gary, Ind.) at an initial weight of 200-250 g and housed in University of Oklahoma Health Sciences Center animal facility. Subjects were housed under a 12:12 hr light dark cycle with free access to food and water with a room temperature controlled at 21° C.
Twenty-four animals were randomly placed into 8 groups of three subjects each. […] Four additional animals were randomly placed into 2 subsequent groups: 400 and 600 mg/kg/day by gavage twice a day (5 days/week) for 8 weeks. […] Weight measurements were taken daily (5 days/week) with assessment of auditory function performed at the conclusion of dosing.

[6] = system: pigmented guinea pigs
Method: Auditory thresholds were assessed in the 0.5 g/kg and 1 g/kg/day subjects at day 45 of dosing while the 2 g/kg/day subjects were evaluated at 22 days of dosing. […] Daily weight measurements determined the injection volume. Assessment of auditory function occurred at the conclusion of dosing.
Injections, determined by daily weight measurements, were made ip daily for 45 days.
Continuous tones were used for eliciting CM. Tone bursts were used to elicit the CAP.

[7] = system: tumor putrescine levels; conditions: rat-tumor model, infusion; cited from earlier work
[8] = system: hair cells of the basilar membrane; test: Histology of Organ of Corti surface preparations (SDH staining, hair cell damage); conditions: one guinea pig, 1 g/kg/day for 45 days; most apical 40% normal
Method: Surface preparations of the Organ of Corti were evaluated in a limited number of subjects. The animals were decapitated while deeply anesthetized after CAP and CM recording. Cochleae were removed immediately. Both the round and oval windows were opened and the apex of the cochlea was drilled open to facilitate perfusion. The cochleae were perfused with SDH (succinate dehydrogenase) incubative solution (0.05 M sodium succinate, 0.05 M phosphate buffer and 0.05% TetraNitro Blue Tetrazolium) and immersed in the solution for one h (37° C.). Then the cochleae were fixed with 10% formalin for at least 2 days. After fixation, the cochleae were decalcified in 10% EDTA solution (EthyleneDiamine Tetraacetic Acid) for 3 days or longer as needed. Cochlea microdissection was accomplished under a light microscope.
Locations along the surface of the basilar membrane were identified by percent distance from apex, and can be related to the physiological data because sound is encoded in a tonotopic fashion with the highest frequencies represented in the most basal portion of the cochlea.

[9] = system: pigmented guinea pigs; test: General toxicity in guinea pigs (mortality, weight gain), daily ip injection; assay type: in vivo, guinea pig
From the text: Daily weight measurements determined the injection volume.

Q: What does the source list for (−)-4-difluoromethyl-ornithine [L-DFMO]?
A: animals with partial tumor shrinkage [1]: seven of eight; mean partial tumor shrinkage [1]: 50.0%; tumor growth inhibition [1]: 5.5%; plasma level ([2]; 200 mg/kg orally, one to two hours): 45 µg/mL

Q: With `NCCC[C@@](N)(C(=O)O)C(F)F` [D-DFMO, D enantiomer of difluoromethylornithine] as the molecule, how does the “animals with partial tumor shrinkage” value [1] read?
A: The value was “four of eight”.

Q: And the “mean partial tumor shrinkage” value [1]?
A: The value was 62.6%.

Q: And the tumor growth inhibition [1]?
A: Its tumor growth inhibition is 84.7%.

Q: And the toxic death ([1]; eight animals per group)?
A: Its toxic death is “two animals experienced toxic death”.

Q: And the plasma level [3]?
A: Its plasma level is 102 µg/mL.

Q: For `COc1cccc2c1C(=O)c1c(O)c3c(c(O)c1C2=O)C[C@@](O)(C(=O)CO)C[C@@H]3O[C@H]1C[C@H](N)[C@H](O)[C@H](C)O1` [adriamycin], which apoptosis and cytotoxicity [4] is on record?
A: Its apoptosis and cytotoxicity is “cytotoxic as well as apoptotic”.

Q: Which weight change [5] does the source give for `NCCCC(N)(C(=O)O)C(F)F` (racemic) [D,L-DFMO, 2-(Difluoromethyl)-DL-ornithine] here?
A: The weight change was “does not produce any significant weight change”.

Q: What about the “average loss of auditory sensitivity (CAP), 20 to 40 kHz” value (from here on “average loss of auditory sensitivity”) ([6]; 500 mg/kg/day ip, day 45) of the same molecule?
A: The value was 7.1 dB.

Q: What about the “CAP threshold elevation, average” value ([6]; 500 mg/kg/day ip, day 45, all frequencies) of the same molecule?
A: Its value is 9 dB.

Q: What about the “effect on CM sensitivity” value ([6]; 500 mg/kg/day to 2 g/kg/day ip) of the same molecule?
A: The value was “not effected”.

Q: What about the “average loss of auditory sensitivity” value ([6]; 1 g/kg/day ip, day 45) of the same molecule?
A: The value was 17 dB.

Q: And the “CAP threshold average loss across all frequencies” value ([6]; 2 g/kg/day ip, 22 days)?
A: The value was 14 dB.

Q: What about the “average loss of auditory sensitivity” value ([6]; 2 g/kg/day ip, 22 days) of the same molecule?
A: Its value is 30 dB.

Q: And the “decrease in tumor putrescine levels” value [7]?
A: Its value is 90%.

Q: What about the “animals with partial tumor shrinkage” value [1] of the same molecule?
A: Its value is “seven of eight”.

Q: And the “mean partial tumor shrinkage” value [1]?
A: Its value is 60.4%.

Q: What about the tumor growth inhibition [1] of the same molecule?
A: The tumor growth inhibition was 99.2%.

Q: And the maximum plasma level ([2]; 400 mg/kg orally)?
A: The maximum plasma level was 109 µg/mL.

Q: What about the “portion of basilar membrane showing hair cell damage” value [8] of the same molecule?
A: The value was 60%.

Q: And the “systemic toxicity (growth rate)” value ([9]; 500 mg/kg/day ip, 45 days)?
A: Its value is “no apparent signs of systemic toxicity”.

Q: What about the weight gain ([9]; 1 g/kg/day ip, 45 days) of the same molecule?
A: The weight gain was “appear to diverge from the controls during the last 10 days”.

Q: And the “subjects that did not survive” value ([9]; 1 g/kg/day ip, full 6 week dosing regimen)?
A: The value was “two of the five”.

Q: And the weight gain ([9]; 2 g/kg/day ip, to day 22)?
A: Its weight gain is “effectively blocked”.

Q: And the animals dying ([9]; 3 g/kg/day ip, within the first six days)?
A: Its animals dying is 100%.

— patent US6602910B2, “D-enantiomer of DFMO and methods of use therefor” (priority 2000, dated 2003)
